# From the kinase profiling compilation of Christmann-Franck et al. (2016)
# Columns and labels:
# Assay in all cases: radiometric filter-binding kinase assay
# [1] = test system: AKT1 (human), P31749 [S473D]
# [2] = test system: AKT2 (human), P31751 [S474D]
# [3] = target: CSNK2A1 (human) (UniProt P68400)
# [4] = target: DYRK3 (human) (UniProt O43781)
# [5] = target: EPHA2 (human) (UniProt P29317)
# [6] = target: EPHB1 (human) (UniProt P54762)
# [7] = target: FGFR1 (human) (UniProt P11362)
# [8] = target: GSK3B (human) (UniProt P49841)
# [9] = target: INSR (human) (UniProt P06213)
# [10] = target: INSRR (human) (UniProt P14616)
# [11] = target: IRAK4 (human) (UniProt Q9NWZ3)
# [12] = test system: LCK (mouse); conditions: accession and sequence are those of the human protein
# [13] = target: MAP2K1 (human) (UniProt Q02750)
# [14] = target: MAP2K6 (human) (UniProt P52564)
# [15] = target: MAP3K9 (human) (UniProt P80192)
# [16] = target: MAPK10 (human) (UniProt P53779)
# [17] = target: MAPK11 (human) (UniProt Q15759)
# [18] = target: MAPK13 (human) (UniProt O15264)
# [19] = target: MARK1 (human) (UniProt Q9P0L2)
# [20] = target: MARK2 (human) (UniProt Q7KZI7)
# [21] = target: MKNK1 (human) (UniProt Q9BUB5)
# [22] = target: MYLK (human) (UniProt Q15746)
# [23] = target: NEK2 (human) (UniProt P51955)
# [24] = target: NEK6 (human) (UniProt Q9HC98)
# [25] = test system: PAK2 (human), Q13177 [T402E]
# [26] = target: PHKG1 (human) (UniProt Q16816)
# [27] = target: PIM2 (human) (UniProt Q9P1W9)
# [28] = target: PIM3 (human) (UniProt Q86V86)
# [29] = target: PKN2 (human) (UniProt Q16513)
# [30] = test system: ROCK2 (rat); conditions: accession and sequence are those of the human protein
# [31] = test system: RPS6KB1 (human), P23443 [T412E]
# [32] = target: SRPK1 (human) (UniProt Q96SB4)
# [33] = target: STK11 CAB39 STRADA (human) (UniProt Q9Y376+Q7RTN6+Q15831)
# [34] = target: SYK (human) (UniProt P43405)
# [35] = target: TBK1 (human) (UniProt Q9UHD2)
# [36] = target: TTK (human) (UniProt P33981)
# AKT1 (human), P31749 [S473D], sequence (P31749 whole entry S473D, looked up): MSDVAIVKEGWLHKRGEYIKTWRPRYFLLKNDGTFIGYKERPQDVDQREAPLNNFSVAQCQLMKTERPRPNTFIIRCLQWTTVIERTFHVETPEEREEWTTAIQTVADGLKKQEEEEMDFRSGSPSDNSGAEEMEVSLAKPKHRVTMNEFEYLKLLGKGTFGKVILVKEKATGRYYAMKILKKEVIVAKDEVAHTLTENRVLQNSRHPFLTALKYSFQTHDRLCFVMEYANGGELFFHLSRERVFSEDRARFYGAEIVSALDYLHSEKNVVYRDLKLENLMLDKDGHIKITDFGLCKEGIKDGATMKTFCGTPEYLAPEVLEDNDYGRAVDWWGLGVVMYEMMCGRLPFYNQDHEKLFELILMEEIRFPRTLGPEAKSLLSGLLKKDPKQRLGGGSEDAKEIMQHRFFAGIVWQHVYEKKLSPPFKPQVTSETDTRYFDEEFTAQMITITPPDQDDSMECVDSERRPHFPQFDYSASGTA
# FGFR1 (human), sequence (P11362 whole entry, looked up): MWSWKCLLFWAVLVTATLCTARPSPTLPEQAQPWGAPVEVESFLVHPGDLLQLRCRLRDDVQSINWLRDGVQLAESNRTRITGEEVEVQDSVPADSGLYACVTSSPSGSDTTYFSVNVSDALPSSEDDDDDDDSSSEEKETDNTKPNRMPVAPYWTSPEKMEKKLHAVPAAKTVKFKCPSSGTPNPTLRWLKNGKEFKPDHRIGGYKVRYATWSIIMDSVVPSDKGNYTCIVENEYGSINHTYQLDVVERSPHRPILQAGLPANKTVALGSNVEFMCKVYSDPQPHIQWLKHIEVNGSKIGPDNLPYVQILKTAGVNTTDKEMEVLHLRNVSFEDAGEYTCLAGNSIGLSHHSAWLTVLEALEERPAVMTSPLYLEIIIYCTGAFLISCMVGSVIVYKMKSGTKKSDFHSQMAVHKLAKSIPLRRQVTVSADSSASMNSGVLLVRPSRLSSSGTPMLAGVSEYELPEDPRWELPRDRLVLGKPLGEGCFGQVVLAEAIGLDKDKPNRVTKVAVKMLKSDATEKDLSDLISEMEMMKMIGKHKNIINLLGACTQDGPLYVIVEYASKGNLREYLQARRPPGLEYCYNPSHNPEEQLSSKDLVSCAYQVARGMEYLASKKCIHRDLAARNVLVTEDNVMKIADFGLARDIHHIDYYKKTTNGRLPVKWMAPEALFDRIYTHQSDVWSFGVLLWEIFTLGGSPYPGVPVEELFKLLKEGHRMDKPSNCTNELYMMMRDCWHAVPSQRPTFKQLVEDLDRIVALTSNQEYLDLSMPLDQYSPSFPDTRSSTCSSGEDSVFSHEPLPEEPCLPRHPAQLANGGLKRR
# MAP2K6 (human), sequence (P52564 whole entry, looked up): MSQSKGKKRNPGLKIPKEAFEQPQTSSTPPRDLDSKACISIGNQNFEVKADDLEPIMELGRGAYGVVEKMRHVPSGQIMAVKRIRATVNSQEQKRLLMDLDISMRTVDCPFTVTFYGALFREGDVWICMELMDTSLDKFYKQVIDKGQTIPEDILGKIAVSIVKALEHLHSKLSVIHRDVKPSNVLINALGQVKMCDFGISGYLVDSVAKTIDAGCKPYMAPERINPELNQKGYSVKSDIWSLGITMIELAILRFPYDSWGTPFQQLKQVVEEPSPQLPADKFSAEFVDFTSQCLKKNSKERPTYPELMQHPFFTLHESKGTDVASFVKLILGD
# RPS6KB1 (human), P23443 [T412E], sequence (P23443 whole entry T412E, looked up): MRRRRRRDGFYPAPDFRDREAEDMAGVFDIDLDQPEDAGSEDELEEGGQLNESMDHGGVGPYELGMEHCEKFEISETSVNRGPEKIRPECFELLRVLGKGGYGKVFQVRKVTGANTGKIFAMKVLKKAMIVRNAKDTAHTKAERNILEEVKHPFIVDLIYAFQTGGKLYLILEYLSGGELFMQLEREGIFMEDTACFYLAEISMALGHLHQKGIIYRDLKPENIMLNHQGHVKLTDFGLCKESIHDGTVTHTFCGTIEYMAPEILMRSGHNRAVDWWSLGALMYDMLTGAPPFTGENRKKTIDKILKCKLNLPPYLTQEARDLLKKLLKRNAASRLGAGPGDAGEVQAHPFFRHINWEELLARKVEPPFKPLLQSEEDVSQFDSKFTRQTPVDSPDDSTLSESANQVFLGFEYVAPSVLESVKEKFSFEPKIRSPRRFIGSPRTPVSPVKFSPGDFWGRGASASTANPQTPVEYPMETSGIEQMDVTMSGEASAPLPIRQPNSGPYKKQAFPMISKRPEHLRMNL
# CSNK2A1 (human), sequence (P68400 whole entry, looked up): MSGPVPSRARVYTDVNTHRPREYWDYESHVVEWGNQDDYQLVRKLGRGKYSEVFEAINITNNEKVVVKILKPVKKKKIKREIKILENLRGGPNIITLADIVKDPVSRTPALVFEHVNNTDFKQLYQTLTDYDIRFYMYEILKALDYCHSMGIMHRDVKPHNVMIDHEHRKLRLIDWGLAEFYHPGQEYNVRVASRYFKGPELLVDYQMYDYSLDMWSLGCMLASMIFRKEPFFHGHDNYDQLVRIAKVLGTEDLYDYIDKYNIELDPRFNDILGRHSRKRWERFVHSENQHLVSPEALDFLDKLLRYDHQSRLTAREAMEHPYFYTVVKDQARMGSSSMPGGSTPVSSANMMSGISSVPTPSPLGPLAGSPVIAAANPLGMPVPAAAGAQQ
# MAPK13 (human), sequence (O15264 whole entry, looked up): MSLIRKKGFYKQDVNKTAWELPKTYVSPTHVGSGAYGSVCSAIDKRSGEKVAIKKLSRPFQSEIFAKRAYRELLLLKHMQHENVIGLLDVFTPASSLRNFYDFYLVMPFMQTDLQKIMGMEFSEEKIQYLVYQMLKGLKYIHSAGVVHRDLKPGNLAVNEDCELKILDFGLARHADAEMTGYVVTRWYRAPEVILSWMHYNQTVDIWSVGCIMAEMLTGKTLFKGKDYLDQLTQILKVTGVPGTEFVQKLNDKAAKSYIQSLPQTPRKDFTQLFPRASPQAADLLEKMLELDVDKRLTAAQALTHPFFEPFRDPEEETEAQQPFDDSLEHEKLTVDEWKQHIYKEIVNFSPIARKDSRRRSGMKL
# AKT2 (human), P31751 [S474D], sequence (P31751 whole entry S474D, looked up): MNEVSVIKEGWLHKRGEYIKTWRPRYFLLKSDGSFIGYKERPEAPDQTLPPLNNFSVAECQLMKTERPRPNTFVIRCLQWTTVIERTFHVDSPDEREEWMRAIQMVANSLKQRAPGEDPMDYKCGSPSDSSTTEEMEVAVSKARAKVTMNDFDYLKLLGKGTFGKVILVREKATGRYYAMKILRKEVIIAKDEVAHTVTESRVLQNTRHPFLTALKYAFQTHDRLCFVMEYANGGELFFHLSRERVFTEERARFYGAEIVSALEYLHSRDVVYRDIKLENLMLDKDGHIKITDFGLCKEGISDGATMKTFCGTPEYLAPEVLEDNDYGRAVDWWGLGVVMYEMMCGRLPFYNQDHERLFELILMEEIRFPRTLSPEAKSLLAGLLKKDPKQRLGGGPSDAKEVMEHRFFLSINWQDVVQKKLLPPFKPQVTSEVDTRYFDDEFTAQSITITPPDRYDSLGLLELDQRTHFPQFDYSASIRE
# IRAK4 (human), sequence (Q9NWZ3 whole entry, looked up): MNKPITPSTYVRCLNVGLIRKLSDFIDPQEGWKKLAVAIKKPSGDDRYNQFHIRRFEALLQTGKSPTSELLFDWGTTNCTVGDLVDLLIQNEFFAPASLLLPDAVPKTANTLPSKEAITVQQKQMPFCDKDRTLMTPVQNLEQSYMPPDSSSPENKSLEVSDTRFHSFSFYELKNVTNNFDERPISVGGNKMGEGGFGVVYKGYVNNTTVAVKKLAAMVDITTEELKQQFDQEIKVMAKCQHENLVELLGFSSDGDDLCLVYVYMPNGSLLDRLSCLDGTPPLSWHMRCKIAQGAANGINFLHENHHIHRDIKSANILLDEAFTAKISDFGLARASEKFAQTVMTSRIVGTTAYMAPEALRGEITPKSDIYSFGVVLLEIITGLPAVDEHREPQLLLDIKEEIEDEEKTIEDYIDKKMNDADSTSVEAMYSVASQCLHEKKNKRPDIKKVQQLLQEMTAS
# PHKG1 (human), sequence (Q16816 whole entry, looked up): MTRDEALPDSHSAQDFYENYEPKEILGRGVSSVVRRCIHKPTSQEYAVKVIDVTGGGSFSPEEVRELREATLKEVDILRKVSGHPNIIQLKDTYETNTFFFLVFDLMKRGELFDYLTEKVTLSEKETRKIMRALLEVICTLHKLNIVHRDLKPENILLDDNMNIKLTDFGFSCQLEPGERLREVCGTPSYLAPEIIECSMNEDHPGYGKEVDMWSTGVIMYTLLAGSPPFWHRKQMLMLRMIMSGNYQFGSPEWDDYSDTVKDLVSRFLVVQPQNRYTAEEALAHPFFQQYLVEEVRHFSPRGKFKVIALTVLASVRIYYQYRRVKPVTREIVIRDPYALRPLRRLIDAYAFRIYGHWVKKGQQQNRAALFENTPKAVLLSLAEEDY
# MAPK11 (human), sequence (Q15759 whole entry, looked up): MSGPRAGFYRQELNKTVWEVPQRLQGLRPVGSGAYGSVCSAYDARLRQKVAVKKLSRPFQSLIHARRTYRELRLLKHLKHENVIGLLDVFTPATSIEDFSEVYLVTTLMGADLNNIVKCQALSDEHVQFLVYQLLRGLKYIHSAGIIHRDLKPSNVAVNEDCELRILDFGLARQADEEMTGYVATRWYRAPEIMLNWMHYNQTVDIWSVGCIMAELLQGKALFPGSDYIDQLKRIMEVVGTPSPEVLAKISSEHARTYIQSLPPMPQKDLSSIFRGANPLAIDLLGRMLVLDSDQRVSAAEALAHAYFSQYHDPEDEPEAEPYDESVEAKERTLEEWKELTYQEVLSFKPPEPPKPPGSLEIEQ
compound,measurement,setting,value
CN(C)C/C=C/C(=O)Nc1cccc(C(=O)Nc2ccc(Nc3nccc(-c4cccnc4)n3)cc2)c1,residual activity,[1]; compound 0.1 µM,92%
same,residual activity,[1]; compound 1.0 µM,104%
same,residual activity,[2]; compound 0.1 µM,93%
same,residual activity,[2]; compound 1.0 µM,106%
same,residual activity,[3]; compound 0.1 µM,80%
same,residual activity,[3]; compound 1.0 µM,81%
same,residual activity,[4]; compound 0.1 µM,81%
same,residual activity,[4]; compound 1.0 µM,79%
same,residual activity,[5]; compound 0.1 µM,110%
same,residual activity,[5]; compound 1.0 µM,125%
same,residual activity,[6]; compound 0.1 µM,93%
same,residual activity,[6]; compound 1.0 µM,86%
same,residual activity,[7]; compound 0.1 µM,94%
same,residual activity,[7]; compound 1.0 µM,95%
same,residual activity,[8]; compound 0.1 µM,88%
same,residual activity,[8]; compound 1.0 µM,56%
same,residual activity,[9]; compound 0.1 µM,81%
same,residual activity,[10]; compound 0.1 µM,72%
same,residual activity,[10]; compound 1.0 µM,64%
same,residual activity,[11]; compound 0.1 µM,86%
same,residual activity,[11]; compound 1.0 µM,88%
same,residual activity,[12]; compound 0.1 µM,95%
same,residual activity,[12]; compound 1.0 µM,101%
same,residual activity,[13]; compound 0.1 µM,98%
same,residual activity,[13]; compound 1.0 µM,113%
same,residual activity,[14]; compound 0.1 µM,97%
same,residual activity,[14]; compound 1.0 µM,91%
same,residual activity,[15]; compound 0.1 µM,72%
same,residual activity,[15]; compound 1.0 µM,39%
same,residual activity,[16]; compound 0.1 µM,15%
same,residual activity,[16]; compound 1.0 µM,16%
same,residual activity,[17]; compound 0.1 µM,96%
same,residual activity,[17]; compound 1.0 µM,82%
same,residual activity,[18]; compound 0.1 µM,106%
same,residual activity,[18]; compound 1.0 µM,100%
same,residual activity,[19]; compound 0.1 µM,91%
same,residual activity,[19]; compound 1.0 µM,80%
same,residual activity,[20]; compound 0.1 µM,94%
same,residual activity,[20]; compound 1.0 µM,85%
same,residual activity,[21]; compound 0.1 µM,84%
same,residual activity,[22]; compound 0.1 µM,96%
same,residual activity,[22]; compound 1.0 µM,85%
same,residual activity,[23]; compound 0.1 µM,93%
same,residual activity,[24]; compound 0.1 µM,88%
same,residual activity,[24]; compound 1.0 µM,96%
same,residual activity,[25]; compound 0.1 µM,102%
same,residual activity,[25]; compound 1.0 µM,93%
same,residual activity,[26]; compound 0.1 µM,94%
same,residual activity,[26]; compound 1.0 µM,83%
same,residual activity,[27]; compound 0.1 µM,96%
same,residual activity,[27]; compound 1.0 µM,102%
same,residual activity,[28]; compound 0.1 µM,97%
same,residual activity,[28]; compound 1.0 µM,84%
same,residual activity,[29]; compound 0.1 µM,99%
same,residual activity,[29]; compound 1.0 µM,92%
same,residual activity,[30]; compound 0.1 µM,89%
same,residual activity,[30]; compound 1.0 µM,71%
same,residual activity,[31]; compound 0.1 µM,88%
same,residual activity,[31]; compound 1.0 µM,112%
same,residual activity,[32]; compound 0.1 µM,105%
same,residual activity,[32]; compound 1.0 µM,104%
same,residual activity,[33]; compound 0.1 µM,78%
same,residual activity,[33]; compound 1.0 µM,91%
same,residual activity,[34]; compound 0.1 µM,89%
same,residual activity,[34]; compound 1.0 µM,72%
same,residual activity,[35]; compound 0.1 µM,77%
same,residual activity,[35]; compound 1.0 µM,79%
same,residual activity,[36]; compound 0.1 µM,83%
same,residual activity,[36]; compound 1.0 µM,77%
Oc1ccc(/C=C/c2cc(O)cc(O)c2)cc1,residual activity,[1]; compound 1.0 µM,82%
same,residual activity,[1]; compound 10.0 µM,89%
same,residual activity,[1]; compound 50.0 µM,63%
same,residual activity,[2]; compound 1.0 µM,108%
same,residual activity,[2]; compound 10.0 µM,67%
same,residual activity,[2]; compound 50.0 µM,76%
same,residual activity,[3]; compound 1.0 µM,101%
same,residual activity,[3]; compound 10.0 µM,82%
same,residual activity,[3]; compound 50.0 µM,49%
same,residual activity,[4]; compound 1.0 µM,38%
same,residual activity,[4]; compound 10.0 µM,8%
same,residual activity,[4]; compound 50.0 µM,2%
same,residual activity,[5]; compound 10.0 µM,81%
same,residual activity,[6]; compound 10.0 µM,97%
same,residual activity,[7]; compound 10.0 µM,85%
same,residual activity,[8]; compound 1.0 µM,100%
same,residual activity,[8]; compound 10.0 µM,80%
same,residual activity,[8]; compound 50.0 µM,37%
same,residual activity,[9]; compound 10.0 µM,50%
same,residual activity,[10]; compound 10.0 µM,62%
same,residual activity,[11]; compound 10.0 µM,73%
same,residual activity,[12]; compound 1.0 µM,115%
same,residual activity,[12]; compound 10.0 µM,97%
same,residual activity,[12]; compound 50.0 µM,59%
same,residual activity,[13]; compound 1.0 µM,99%
same,residual activity,[13]; compound 10.0 µM,81%
same,residual activity,[13]; compound 50.0 µM,75%
same,residual activity,[14]; compound 10.0 µM,87%
same,residual activity,[15]; compound 10.0 µM,44%
same,residual activity,[16]; compound 1.0 µM,80%
same,residual activity,[16]; compound 10.0 µM,87%
same,residual activity,[16]; compound 50.0 µM,114%
same,residual activity,[17]; compound 1.0 µM,112%
same,residual activity,[17]; compound 10.0 µM,93%
same,residual activity,[17]; compound 50.0 µM,108%
same,residual activity,[18]; compound 1.0 µM,95%
same,residual activity,[18]; compound 10.0 µM,91%
same,residual activity,[18]; compound 50.0 µM,72%
same,residual activity,[19]; compound 10.0 µM,96%
same,residual activity,[20]; compound 10.0 µM,86%
same,residual activity,[21]; compound 1.0 µM,102%
same,residual activity,[21]; compound 10.0 µM,66%
same,residual activity,[21]; compound 50.0 µM,125%
same,residual activity,[22]; compound 1.0 µM,78%
same,residual activity,[22]; compound 10.0 µM,63%
same,residual activity,[22]; compound 50.0 µM,15%
same,residual activity,[23]; compound 1.0 µM,96%
same,residual activity,[23]; compound 10.0 µM,91%
same,residual activity,[23]; compound 50.0 µM,83%
same,residual activity,[24]; compound 1.0 µM,104%
same,residual activity,[24]; compound 10.0 µM,96%
same,residual activity,[24]; compound 50.0 µM,87%
same,residual activity,[25]; compound 10.0 µM,83%
same,residual activity,[26]; compound 1.0 µM,58%
same,residual activity,[26]; compound 10.0 µM,21%
same,residual activity,[26]; compound 50.0 µM,23%
same,residual activity,[27]; compound 1.0 µM,78%
same,residual activity,[27]; compound 10.0 µM,37%
same,residual activity,[27]; compound 50.0 µM,27%
same,residual activity,[28]; compound 1.0 µM,48%
same,residual activity,[28]; compound 10.0 µM,44%
same,residual activity,[28]; compound 50.0 µM,2%
same,residual activity,[29]; compound 1.0 µM,95%
same,residual activity,[29]; compound 10.0 µM,70%
same,residual activity,[29]; compound 50.0 µM,21%
same,residual activity,[30]; compound 1.0 µM,125%
same,residual activity,[30]; compound 10.0 µM,83%
same,residual activity,[30]; compound 50.0 µM,21%
same,residual activity,[31]; compound 1.0 µM,93%
same,residual activity,[31]; compound 10.0 µM,69%
same,residual activity,[31]; compound 50.0 µM,15%
same,residual activity,[32]; compound 1.0 µM,111%
same,residual activity,[32]; compound 10.0 µM,87%
same,residual activity,[32]; compound 50.0 µM,93%
same,residual activity,[33]; compound 10.0 µM,69%
same,residual activity,[34]; compound 10.0 µM,92%
same,residual activity,[35]; compound 10.0 µM,79%
same,residual activity,[36]; compound 10.0 µM,83%
